According to patent publication US10125123B2, “Small molecule IRE1-α inhibitors” (Cornell University, priority 2016, dated 2018):

What was measured:
IRE1α = molecular target: T1, IRE1α (Homo sapiens, UniProt O75460); assay: In vitro FRET assay (XBP1 RNA probe cleavage by IRE1α); details: biochemical FRET assay, 2 nM IRE1α
T1 construct: purchased SignalChem
Protocol: In vitro FRET assay was performed to evaluate the ability of select compounds to inhibit IRE1, the results of which are summarized in the following table.
To perform the in vitro FRET assay, 1× complete assay buffer (CAB; […], 50 mM sodium citrate pH 7.15, 1 mM magnesium acetate, 0.02% Tween 20) was used to dilute SignalChem IRE1α in protein to a final concentration of 2 nM. Selected compounds were serially diluted with DMSO in a non-binding black 384-well plate for a total of 15 μl in each well. 2 μl of the serially diluted compound or DMSO control were then added to new wells containing 98 μl of 1×CAB, for a total volume of 100 μl, 10 μl of which were then transferred to wells of a new plate. 5 μl of the diluted IRE1α was then added to each well. 5 μl of a […] XBP1 RNA probe was then added to each well. Fluorescence was then read over 30 minutes in kinetic mode (485/515 nm). Two RNA probes were used, XBP1 wildtype (CAUGUCCGCAGCACAUG; SEQ ID NO: 1) which is able to be spliced by active IRE1α or XBP1 mutant (CAUGUCCCCAGCACAUG; SEQ ID NO: 2) which is unable to be spliced. Each probe contained a 5′ 6-FAM modification and a 3′ IOWA Black FQ modification. […]

[1] = molecular target: IRE1α kinase and endoribonuclease domains (Homo sapiens, UniProt O75460); details: cited from earlier work
myeloid dendritic cells = assay: Lipid accumulation in dendritic cells exposed to ovarian cancer ascites supernatants (BODIPY 493/503 staining, flow cytometry); type: cell-based, mouse
Excerpt: FIG. 1D is flow cytometry analysis of lipid accumulation in mouse bone marrow-derived dendritic cells exposed to the indicated treatments, measured by BODIPY 493/503 staining intensity.

T1 sequence (O75460 19-977): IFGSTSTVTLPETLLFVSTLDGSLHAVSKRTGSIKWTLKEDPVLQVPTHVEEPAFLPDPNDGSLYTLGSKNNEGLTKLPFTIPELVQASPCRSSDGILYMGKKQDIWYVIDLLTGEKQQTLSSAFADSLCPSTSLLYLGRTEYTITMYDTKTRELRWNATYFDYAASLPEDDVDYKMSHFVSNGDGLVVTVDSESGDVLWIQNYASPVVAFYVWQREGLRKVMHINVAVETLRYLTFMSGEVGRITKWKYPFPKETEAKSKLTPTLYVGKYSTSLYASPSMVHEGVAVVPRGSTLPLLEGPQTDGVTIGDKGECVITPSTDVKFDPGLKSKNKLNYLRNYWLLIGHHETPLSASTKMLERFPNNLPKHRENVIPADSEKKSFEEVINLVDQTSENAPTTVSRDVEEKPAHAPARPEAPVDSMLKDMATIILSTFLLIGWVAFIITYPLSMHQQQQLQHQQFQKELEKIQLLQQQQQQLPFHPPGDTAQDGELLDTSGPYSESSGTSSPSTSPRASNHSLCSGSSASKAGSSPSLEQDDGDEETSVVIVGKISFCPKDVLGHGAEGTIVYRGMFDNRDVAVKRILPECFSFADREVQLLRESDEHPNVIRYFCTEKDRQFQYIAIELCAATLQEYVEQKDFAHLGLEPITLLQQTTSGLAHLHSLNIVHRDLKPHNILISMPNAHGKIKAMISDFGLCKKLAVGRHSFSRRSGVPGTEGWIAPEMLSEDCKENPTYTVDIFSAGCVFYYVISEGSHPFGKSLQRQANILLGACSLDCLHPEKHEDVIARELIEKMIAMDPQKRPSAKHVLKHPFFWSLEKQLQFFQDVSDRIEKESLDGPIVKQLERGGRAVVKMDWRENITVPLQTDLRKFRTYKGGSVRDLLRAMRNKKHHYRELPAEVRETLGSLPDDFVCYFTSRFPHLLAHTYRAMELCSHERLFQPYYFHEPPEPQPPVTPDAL
Chain of IRE1α kinase and endoribonuclease domains (O75460 19-977): as above

| Compound | EC50 (IRE1α) | further results |
| --- | --- | --- |
| Cn1nc(NC(=O)NCc2ccccc2)cc1-c1ccc2ccncc2c1 [Compound 63, 1-benzyl-3-(5-(isoquinolin-7-yl)-1-methyl-1H-pyrazol-3-yl)urea] | > 100 µM | – |
| Cn1nc(NS(=O)(=O)c2ccccc2)cc1-c1ccc2cc(N)ncc2c1 [Compound 66, N-(5-(3-aminoisoquinolin-7-yl)-1-methyl-1H-pyrazol-3-yl)benzenesulfonamide] | > 100 µM | – |
| CN1CCC(=Cc2ccc(NC(=O)Nc3cc(-c4ccc5cc(N)ncc5c4)n(C)n3)cc2C(F)(F)F)CC1 [Compound 71, 1-(5-(3-aminoisoquinolin-7-yl)-1-methyl-1H-pyrazol-3-yl)-3-(4-((1-methylpiperidin-4-ylidene)methyl)-3-(trifluoromethyl)phenyl)urea] | 5 to 50 µM | – |
| Cn1nc(NS(=O)(=O)c2cccc(C(F)(F)F)c2)cc1-c1ccc2ccncc2c1 [Compound 72, N-(5-(isoquinolin-7-yl)-1-methyl-1H-pyrazol-3-yl)-3-(trifluoromethyl)benzene-sulfonamide] | 50 to 100 µM | – |
| CN1CCN(Cc2ccc(Nc3c(Nc4cc(-c5ccc6nc(N)ncc6c5)n(C)n4)c(=O)c3=O)cc2C(F)(F)F)CC1 [Compound 75, 3-((5-(2-aminoquinazolin-6-yl)-1-methyl-1H-pyrazol-3-yl)amino)-4-((4-((4-methylpiperazin-1-yl)methyl)-3-(trifluoromethyl)phenyl)amino) cyclobut-3-ene-1,2-dione] | ≤ 5 µM | – |
| CC(C)n1nc(-c2ccc(NC(=O)Nc3cccc(C(F)(F)F)c3)cc2)c2c(N)ncnc21 [SRC inhibitor, 1-(4-(4-Amino-1-isopropyl-1H-pyrazolo[3,4-d]pyrimidin-3-yl)phenyl)-3-(3-(trifluoromethyl)phenyl)urea] | – | inhibition of IRE1α kinase and endoribonuclease domains [1]: inhibits |
| vitamin E | – | pathological intracellular lipid accumulation (myeloid dendritic cells): suppressed |

Continued, in another order:

| EC50 (IRE1α) | Compound | further results |
| --- | --- | --- |
| > 100 µM | Cn1nc(NC(=O)Nc2ccccc2)cc1-c1ccc2ccncc2c1 [Compound 64, 1-(5-(isoquinolin-7-yl)-1-methyl-1H-pyrazol-3-yl)-3-phenylurea] | – |
| > 100 µM | COc1ccccc1NC(=O)Nc1cc(-c2ccc3ccncc3c2)n(C)n1 [Compound 65, 1-(5-(isoquinolin-7-yl)-1-methyl-1H-pyrazol-3-yl)-3-(2-methoxyphenyl)urea] | – |
| > 100 µM | Cn1nc(NC(=O)c2ccccc2)cc1-c1ccc2cc(N)ncc2c1 [Compound 67, N-(5-(3-aminoisoquinolin-7-yl)-1-methyl-1H-pyrazol-3-yl)benzamide] | – |
| > 100 µM | CSc1ccccc1NC(=O)Nc1cc(-c2ccc3ccncc3c2)n(C)n1 [Compound 68, 1-(5-(isoquinolin-7-yl)-1-methyl-1H-pyrazol-3-yl)-3-(2-(methylthio)phenyl)urea] | – |
| > 100 µM | Cn1nc(NC(=O)Nc2ccccc2F)cc1-c1ccc2ccncc2c1 [Compound 69, 1-(2-fluorophenyl)-3-(5-(isoquinolin-7-yl)-1-methyl-1H-pyrazol-3-yl)urea] | – |
| > 100 µM | CNS(=O)(=O)c1ccc(NC(=O)Nc2cc(-c3ccc4ccncc4c3)n(C)n2)cc1 [Compound 70, 4-(3-(5-(isoquinolin-7-yl)-1-methyl-1H-pyrazol-3-yl)ureido)-N-methylbenzenesulfonamide] | – |
| ≤ 5 µM | CN1CCN(Cc2ccc(Nc3c(Nc4cc(-c5ccc6ccncc6c5)n(C)n4)c(=O)c3=O)cc2C(F)(F)F)CC1 [Compound 73, 3-((5-(isoquinolin-7-yl)-1-methyl-1H-pyrazol-3-yl)amino)-4-((4-((4-methylpiperazin-1-yl)methyl)-3-(trifluoromethyl)phenyl)amino) cyclobut-3-ene-1,2-dione] | – |
| ≤ 5 µM | CN1CCN(Cc2ccc(Nc3c(Nc4cc(-c5ccc6ccncc6c5)n(C)n4)c(=O)c3=O)cc2)CC1 [Compound 74, 3-((5-(isoquinolin-7-yl)-1-methyl-1H-pyrazol-3-yl)amino)-4-((4-((4-methylpiperazin-1-yl)methyl)phenyl)amino)cyclo-but-3-ene-1,2-dione] | – |
| 50 to 100 µM | Cn1nc(Nc2c(NC3CCCC3)c(=O)c2=O)cc1-c1ccc2nc(N)ncc2c1 [Compound 76, 3-((5-(2-aminoquinazolin-6-yl)-1-methyl-1H-pyrazol-3-yl)amino)-4-(cyclopentylamino)cyclobut-3-ene-1,2-dione] | – |
